Reference: US12414983B2, “CD200AR ligands for cancer immunotherapy” (REGENTS OF THE UNIVERSITY OF MINNESOTA, priority 2019, dated 2025)
Entries after “also recorded” stand apart in the source; their conditions may differ.

How the values were obtained:
Splenocytes = Splenocytes pulsed with CD200 or PD-L1 +/- mCD200AR-L, flow cytometry for CTLA4 and PD-L1; format: cell-based
Protocol: FIGS. 14A-14C. […] Splenocytes were pulsed with CD200, PD-L1+/−mCD200AR-L. Cells were analyzed by flow cytometry for the (FIG. 14A) CD4^+CTLA4^+, (FIG. 14B) CD8^+CTLA4^+or (FIG. 14C) CD11b^+PD-L1^+ populations. Error bars are representative of n=2 *P<0.005, **P<0.0001.
We propose that soluble CD200 and PD-L1 inhibit T cell activation through multiple checkpoints (FIG. 10). Therefore, the effect of multiple suppressive molecules (CD200 and PD-L1) on T cell inhibition was investigated. […] In addition, following PD-L1 treatment, an upregulation of PD-L1 on CD11b and an upregulation of CTLA4 was observed on T cells. Being CTLA4 and PD-L1 propagate separate inhibitory signals, it was hypothesized that PD-L1 inhibits T cell activation through 1) direct CD200 and PD-L1 on T cells and 2) direct PD-L1 (on APCs)/PD-I (on […]) producing cytokines upregulating CTLA4, which would explain the enhanced responses seen in combination α-PD-1 and α-CTLA4 treatments. However, neither of them inhibit CD200 effect on T cells.
We next looked at the effects of CD200AR-L on T cell inhibition. […] Being CTLA4 and PD-L1 propagate separate inhibitory signals, we hypothesize that PD-L1 inhibits T cell activation through two separate mechanisms, 1) through direct PD-L1 (on APCs)/PD-I (on T cells) interactions and through cytokine production following PD-L1 binding to the PD-1 on CD11b cell, which would explain the enhanced responses seen in combination α-PD-1 and α-CTLA4 treatments.

Murine CD11b cells = assay: PMA-activated murine CD11b cells treated with PD-L1 +/- murine CD200AR-L, cytokines; format: cell-based; settings: PD-L1 with or without murine CD200AR-L, 48 hr
Description: FIGS. 8A-8C. CD200AR-L pulses overpowers the suppressive PD-L1.

Murine splenocytes = assay: Splenocytes activated with PMA +/- PD-L1 or PD-L1+CD200AR-L, cytokines; format: cell-based; settings: 48 hr
Protocol: FIGS. 11A-11C. […] Murine splenocytes were activated with PMA, +/−PD-L1 or PD-L1+mCD200AR-L. Following 48 hr incubation, supernatants were analyzed for (FIG. 11A) TNFα (FIG. 11B) IL-4 or (FIG. 11C) IL-5. Error bars are representative of n=3; *P<0.005.
The CD200 and PD-1 pathways crosstalk, allowing CD200AR-L to override the suppressive PD-L1. […] To evaluate the effect of CD200AR-L on PD-1/PD-L1, splenocytes were activated with PMA+/−PD-L1 or PD-L1+CD200AR-L, and supernatants were analyzed for TNFα, IL-4 and IL-5 production (FIG. 11A-11C). As observed with the CD200 protein (FIG. 11B), PD-L1 induced an immune suppressed environment as measured by cytokine production; however, PD-L1 reduced the production of TNFα, IL-4 and IL-5 induced by PMA, which was restored by the addition of CD200AR-L. These experiments led to the hypothesis that the CD200 and PD-1 pathways are connected.

CD14+ cells [1] = assay: RNAseq / NanoString gene expression analysis of pulsed CD14+ cells; format: cell-based, human
Description: Nanostring gene expression analysis: Total RNA from CD14^+ cells was sent to New Zealand Genomics Limited (Dunedin, New Zealand) to measure the expression of genes that are differentially expressed during inflammation (nCounter GX, NanoString Technologies, Seattle, WA, USA). Briefly, total RNA was extracted from CD14^+ cells (MagJET RNA kit, Thermo Fisher Scientific, Waltham, MA) using the protocol adapted for tissue (KingFisher Duo machine, Thermo Fisher Scientific, Waltham, MA). RNA samples were then quantified (Qubit® 2.0 fluorometer, Thermo Fisher Scientific) and subjected to RNA integrity analysis (2100 Bioanalyzer, Agilent Technologies, Santa Clara, CA). Probes for the genes encoding CD44 (NM_001001392.1); NANOG (NM_024865.2); OCT4 (NM_002701.4); STAT3 (NM_139276.2); and the housekeeping genes glucuronidase beta (NM_000181.1), clathrin heavy chain (NM 4859.2), and hypoxanthine phosphoribosyltransferase 1 (NM_000194.1) were designed and manufactured by NanoString Technologies.
Expression data obtained with NanoString GX were analyzed by using nSolver Analysis Software 3.0 (nanostring.com/products/nSolver) with default settings, and normalized to housekeeping genes. nSolver was used to perform cluster analysis and to generate heat maps by using Java Treeview Version 1.1.6r4. Pathway analysis was performed by using the PathCards Pathway Unification Database (pathcards.genecards.org). Student's t-tests were used to determine significant differences (p<0.05).

Human CD14+ cells = assay: Cytokine measurements in CD14+ cells pulsed with CD200AR-L peptide; format: cell-based; settings: selection among 61 alanine-substituted peptides
Protocol: Cytokine measurements. Human CD14^+ cells (5×10^5) were isolated from peripheral blood mononuclear cells (PBMCs) using anti-CD14 beads (BD Biosciences, San Jose, CA), typically yielding ≥70% recovery and ≥90% purity. Cells were pulsed with 2 μM CD200AR-L peptide and incubated for 48 h, after which the supernatants were analyzed by bead array for cytokine production (BD Biosciences, San Jose, CA).

human CD14 cells = assay: CD200R1 and PD-1 on human CD14 cells pulsed with human CD200AR-L, flow cytometry; format: cell-based; settings: mean fluorescent intensity
Protocol: FIGS. 7A-7G. CD200AR-L pulses down-regulate inhibitory CD200R1. Murine CD11b cells were pulsed with mCD200AR-L, RNA was extracted and analyzed for CD200R1 or PD-1 expression (FIGS. 7A&B). To further these studies, CD11b cells were stimulated with OVA+/−CD200AR-L, cells were washed and purified T cells were added. Following 24 hr incubation, T-cells were isolated and analyzed for CD200R1 or PD-1 expression (FIGS. 7C&D). To see if these experiments translated to humans, CD14 cells were pulsed with our human CD200AR-L. Following 24 hr incubation, cells were stained with anti-CD200R1 analyzed by flow cytometry (FIG. 7E), mean fluorescent intensity was analyzed for CD200R1 (FIG. 7F) and PD-1 (FIG. 7G) expression. […] Error bars represent standard deviation (n=3/group, *P<0.05, **P<0.005, ***P<0.0005, ****P<0.00005 by t-test.
FIGS. 13A-13F. Figure. […] Murine CD11b cells were pulsed CD200AR-L and analyzed for transcription levels of (FIG. 13A) CD200R1 and (FIG. 13B) PD-1; Human CD14 cells were pulsed with human CD200AR-L, following 48 hr incubation, cells were analyzed by flow cytometry for (FIG. 13C) CD200R1 and (FIG. 13D) PD-1 expression; murine CD11b cells from wildtype mice were pulsed with OVA+/− the CD200AR-L. Cells were washed, purified CD3 cells were added to CD11b cells for 24 hrs. CD3 cells were purified and analyzed for transcription levels of (FIG. 13E) CD200R1 and (FIG. 13F) PD-1. […]

CD14+ cells [2] = assay: Dendritic cell maturation: phenotyping for CD80, CD86, HLA-DR; format: cell-based, human; settings: peptide alone compared with GM-CSF+IL4, p<0.0001
Protocol: FIGS. 4A-4D. Targeting CD200 activation receptors enhances dendritic cell maturation. (FIGS. 4A, 4B) CD14 purified cells were pulsed with (FIG. 4A) GM-CSF+IL4 or equal molar ratios of peptides P1A8, P2A0, or P4A10 or (FIG. 4B) GM-CSF+IL4 plus equal molar ratios of peptides P1A8, P2A0, or P4A10 and incubated for 48 h. Cells were harvested and phenotyped for CD80, CD86, and HLA-DR. (FIG. 4C) Immature dendritic cells from donors with or without CMV were pulsed with the CMV antigen pp65+/−equal molar ratios of peptides P1A8, P2A0, or P4A10. Cells were washed, and autologous T-cells were added back and incubated for a further 48 h. Supernatants were analyzed for IFNγ production. (FIG. 4D) Immature dendritic cells were pulsed with the CMV antigen pp65+/−P4A10. After the cells were washed, autologous T-cells were added back and incubated for a further 48 h. Supernatants were analyzed for IFNγ, IL-6, TNFα and RANTES content. Error bars represent standard deviation (n=3 healthy donors/group, *P<0.05, **P<0.005, ***P<0.0005 by t-test). The data represent three separate healthy donors. Black bars represent CMV-negative donors.
Targeting CD200 activation receptors enhances dendritic cell maturation. TNF-regulated cytokines (Table 1) have been implicated in dendritic cell maturation. […] To substantiate this, CD14^+ cells were isolated from healthy human donors and pulsed with GM-CSF+IL4, P1A8, P2A0, or P4A10 27. Cells pulsed with P1A8, P2A0, and P4A10 expressed higher levels of the co-stimulatory molecules CD80, CD86, and HLA-DR than cells treated with GM-CSF+IL4 (p<0.0001; FIG. 4a). Moreover, we observed synergistic upregulation of CD80/86 and HLA-DR when CD14^+ cells were incubated with GM-CSF+IL4 and each of the peptides (p<0.0001) (FIG. 4b).

[3] = tested on: spontaneously occurring glioblastoma; assay: Canine study: tumor resection plus canine CD200AR-L and autologous tumor lysate vaccination; format: in vivo, dog; settings: canine glioma model
Protocol: Canine study. Pet dogs with a solitary intra-axial mass found by magnetic resonance imaging (MRI) were recruited into a pilot study to assess the effect of a canine-specific peptide. The MRIs were performed to find the causes of generalized seizure activity or behavioral changes, and anti-epileptic drug therapy and corticosteroids were prescribed to control seizures and minimize cerebral edema, respectively. Additional inclusion criteria were 1) tumor suitable for surgical resection, 2) informed consent provided by the dog's owner, 3) normal mentation status at the time of surgery, and 4) no previous definitive therapy for the suspected glioma.
All dogs underwent surgical resection of the intra-axial mass for maximal tumor debulking. The removed tumors were immediately processed to generate autologous tumor lysates. The lysates were prepared by culturing single-cell suspensions from minced fresh tumor samples at 37° C. in 5% […]. […] An immediate postoperative MRI was performed to assess the extent of resection and to quantify any residual tumor volume. Tumor volume was measured using the planimetry method, which outlines the tumor perimeter on each MR slice; Osirix software was used to calculate the area, and then the areas were summed and multiplied by slice thickness plus gap width. After recovery from anesthesia, all dogs were monitored in the intensive care unit for at least 24 hours. […]

murine glioma model = assay: Murine glioma model survival; format: in vivo
[4] = splenocytes pulsed with CD200 or PD-L1

PD-L1: programmed cell death ligand 1, suppressive protein used to pulse cells
CTLA4 on CD4 cells (Splenocytes; [4]): upregulated
CTLA4 on CD8 cells (Splenocytes; [4]): upregulated
PD-L1 on CD11b cells (Splenocytes; [4]): upregulation; also recorded: upregulated
CTLA4 on T cells (Splenocytes; total splenocytes, following PD-L1 treatment): upregulation
activation of CD11b cells (TNFalpha, IL4, IL5 in supernatant) (Murine CD11b cells): suppressed the activation
production of TNFα, IL-4 and IL-5 (Murine splenocytes): reduced

IVTWQKKAAVSPENM (Ac-IVTWQKKAAVSPENM-NH2; listed as Homo sapiens) [P1A8]
mRNA expression of TNF-regulated cytokines (CD14+ cells [1]; NanoString platform, FIG. 3b): most potently and consistently induced
mRNA expression of cytokines released in response to TNF signaling (CD14+ cells [1]; RNAseq, CD14+ cells): notable increase
secretion of inflammatory cytokines from CD14+ cells (Human CD14+ cells): maximally stimulated
PD-1 expression on human CD14 cells (human CD14 cells): down regulated
levels of co-stimulatory molecules CD80, CD86, and HLA-DR (CD14+ cells [2]): higher levels

CLFNTFGSGAISGTA (Ac-CLFNTFGSGAISGTA-NH2; listed as Canis lupus) [canine P4A10]
survival benefit [3]: significant survival benefit

VTWQKKKAVSPANM (Ac-VTWQKKKAVSPANM-NH2; listed as Mus musculus) [murine P1A12]
survival benefit (murine glioma model): significant survival benefit
